Results on nine compounds are retold here after US20090203720A1, “Methods for inhibiting cell growth” (priority 2003, published 2009).

Data set [1] deals with T1, RXRα (Homo sapiens, UniProt P19793).
T1 construct: expressed in transfected cells; host or cells: HEK293
T1 sequence (P19793 1-462): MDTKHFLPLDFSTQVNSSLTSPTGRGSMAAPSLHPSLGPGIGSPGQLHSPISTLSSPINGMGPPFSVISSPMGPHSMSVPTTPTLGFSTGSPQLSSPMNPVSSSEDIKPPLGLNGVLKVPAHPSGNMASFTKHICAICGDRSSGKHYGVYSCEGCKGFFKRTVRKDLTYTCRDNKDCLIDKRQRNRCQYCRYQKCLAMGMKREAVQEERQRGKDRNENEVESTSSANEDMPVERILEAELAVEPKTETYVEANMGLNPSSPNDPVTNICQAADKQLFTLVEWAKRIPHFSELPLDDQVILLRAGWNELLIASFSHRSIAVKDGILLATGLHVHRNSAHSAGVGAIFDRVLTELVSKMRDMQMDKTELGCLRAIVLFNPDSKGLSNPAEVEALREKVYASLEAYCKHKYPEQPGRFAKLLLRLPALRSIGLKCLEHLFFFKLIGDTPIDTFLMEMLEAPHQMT
Nature of the data set: Ligand-dependent recruitment of protein kinase to Flag-RXRα immunocomplexes (immunoprecipitation, in vitro kinase assay). The data set is classed as cell-based. The note with it: for recruitment of protein kinase to RXR immunocomplexes: transfected HEK293 cells, ligands at 10^-6 M, 15 minutes. The text has this:
Total cell lysates were immunoprecipitated with anti-Flag antibody (M2). An aliquot of the immunocomplexes were used for the in vitro kinase reaction with [γ-^32P]ATP and separated on SDS-PAGE. The phosphorylated proteins were detected by autoradiography (right panel). To show the presence of equal amounts of RXR in the immunoprecipitates, additional aliquots of the immunocomplexes were subjected to immunoblotting with a polyclonal antibody (D20) against RXR (left panel).
In vitro kinase reaction assay was performed.

Data set [2] has as its system RXR:RAR heterodimers. In words: Transactivation assay, pRARE-Luc reporter in CV-1 cells. Type of data set: cell-based. The note with it: CV-1 cells cotransfected with RXRα and RARα; 10^-7 M, 16 hr. On the procedure:
(§1) FIGS. 4A, 4B and 4C display evidence of transactivation by RXRα homodimers or RXRα:RARα heterodimers is not modulated by CK1α. For the left panel, CV1 cells were cotransfected with pFlag-RXRα, reporter plasmid pRXRE-Luc, β-galactosidase expression vector, plus increasing amount of CK1α expression vector (lane 1 and 2: 0 ng; lane 3: 50 ng; lane 4: 100 ng; lane 5: 200 ng), or sense strand CK1α or double-strand RNAi CK1α, or sense strand CK1ε or double-strand RNAi CK1ε. […] Data are presented as the activity of luciferase normalized to that of β-galactosidase activity, which served as an internal control for transfection efficiency and are the mean of three independent experiments with triplicates for each. For the middle panel, CV1 cells were cotransfected with pFlag-RXRα, pRAR-V5, reporter plasmid pRARE-Luc, β-galactosidase expression vector, plus sense strand CK1α or double-strand RNAi CK1α. […] Data are presented as the activity of luciferase normalized to that of β-galactosidase activity and are the mean of three independent experiments with triplicates for each. CK1α could efficaciously be depleted in CV-1 cells by small double-strand RNAi, judged by immunoblotting the total cell lysates with anti-CK1α antibodies (left panel).
Similar transfection experiments were also performed using pRARE-Luc as reporter with cotransfection of RXRα and RARα. […]

For data set [3], the system named is RXR-associated kinase. In words: Effect of signalling pathway modulators on RXR-associated kinase activity in RXR transfected cells. The note with it: cell treatment: anisomycin 50 μM; pathway inhibitors 1 hour; insulin 30 minutes. Type of data set: cell-based. The procedure:
(§2) The cells were stimulated with anisomycin (50 μM) and COMPOUND-1 (10^−7 M) as indicated, then the cell lysates were subjected to immunoprecipitation and in vitro kinase assay (bottom panel).
(§3) Activation of stress pathways lead to the phosphorylation of RXR (22,23), and MKK4/SEK1 is reported to associate with and phosphorylate RXR directly (23). […] Anisomycin treatment led to phosphorylation of RXR resulting in an up-shift of the RXR band on SDS-PAGE (22).
To further study the effect of signaling transduction pathways on the RXR-associated kinase activity, RXR transfected cells were incubated with inhibitors of the PI3 kinase (wortmannin), p42/44 MAPK (PD98059), or p38 MAPK pathways (SB202190 or SB203580) for 1 hour or stimulated with insulin or 10% serum for 30 minutes. RXR complexes were then isolated and the in vitro kinase assays were performed in the usual manner.

The subject of data set [4] is Jurkat-pSupCK1α cells. In words: Apoptotic populations in CK1α-suppressed Jurkat cells. Type of data set: cell-based. The note with it: 3 days. The procedure:
FIGS. 4J, 4K, 4L and 4M show effects of depletion of CK1α on Jurkat cells: A cell line (Jurkat-pSupCK1α) in which CK1α expression is suppressed by stably expressing SiRNA CK1α was generated from Jurkat cells (left panel). The effect of COMPOUND-1 (4 days) on growth inhibition of Jurkat and Jurkat-pSupCK1α cells was measured (the second panel).
Based on this observation, CK1α negative regulation RXR-mediated apoptosis. HEK293RXR and Jurkat cells were used to deplete the expression of endogenous CK1α by stably transfecting CK1α RNAi expression vector. Although the depletion of endogenous CK1α in both cell lines was not very efficient, (with a 30% to 50% decrease for the expression of CK1α achieved in both cell lines) after decreasing the CK1α expression, both cell lines were becoming very sensitive to the treatment of RXR agonist in term of the cell growth inhibition (FIGS. 4J, 4K, 4L and 4M). Apoptotic cell populations of Jurkat-pSupCK1 (containing the CK1α RNAi construct) is increased compared to the parental cell lines in the presence of RXR agonist (FIGS. 4J, 4K, 4L and 4M).

In data set [5] the test system is DT40RXR and JurkatRXR cells. In words: Cell death/growth inhibition in RXR-overexpressing versus parental cells. The conditions noted are these: JurkatRXR vs parental cells, 3 days. Type of data set: cell-based. The procedure: FIGS. 1A, 1B and 1C show RXR and RXR agonist dependent cell growth inhibition: DT40, DT40RXR, Jurkat, and JurkatRXR cells (5×10^3 cells/ml) were treated with various doses of AGN19424 for 3 days (the left two panels). Viable cells were counted and were presented as percentage of control (cells without treatment).
Overexpressing activated RXR may mediate growth inhibitory effects in some human carcinoma cells (17). To confirm that the effects of RXR agonists were mediated by RXR proteins and explore the molecular mechanism, two RXR stably expression cell lines were generated using B lymphoma cell (DT40) and T lymphoma cells (Jurkat cells), which are named DT40RXR and JurkatRXR (FIG. 1A, left panel).
(§4) The sensitivity of the wild-type cells and the cells stably expressing RXR to RXR agonist treatment.

Data set [6] deals with DT40RXR cells. Nature of the data set: Apoptosis by FACS DNA content analysis (propidium iodide). Type of data set: cell-based. The conditions noted are these: 10 nM, 3 days, 10.4% without agonist. The procedure:
(§5) Cells having a DNA content less than the G1 population were considered as apoptotic cells.
(§6) For immunoblotting, proteins from cell lysates or immunoprecipitates were subjected to separation on SDS-PAGE (38). The resolved polypeptides were transferred to PVDF membrane and analyzed by immunoblotting (39). The targeted proteins were detected using the enhanced chemiluminescence immunodetection system (Amersham). DNA content analysis by FACS was performed on FACScan™ (Becton Dickinson) as described (40).
A general note: A flow cytometer gives signals particle by particle.

For data set [7], the system named is JurkatRXR cells. The data set is described as above. Type of data set: cell-based. The conditions noted are these: 10 nM, 3 days, 11.9% without agonist. On the procedure: as §5, §6
Data set [8] has as its system DT40 cells. The description is as above. Type of data set: cell-based. The note with it: 10 nM, 3 days, cells with DNA content less than G1, 3.5% without agonist. On the procedure: as §5, §6
Data set [9] relates to Jurkat cells. The data set is described as above. Type of data set: cell-based. The conditions noted are these: 10 nM, 3 days, 2.8% without agonist. On the procedure: as §5, §6
Data set [10] relates to RXRα homodimers. Nature of the data set: Transactivation assay, pRXRE-Luc (DR-1) reporter in CV-1 cells. Type of data set: cell-based. The note with it: 10^-8 M, 16 hr, CV1 cells. On the procedure: as §1
CK1α is the smallest in the CK1 family. […] The role of CK1α in transactivation by RXR homodimers and RXR:RAR heterodimers was determined. […]

Data set [11] relates to DT40RXR cells. Nature of the data set: Activation of caspases 3 and 9. The data set is classed as cell-based. On the procedure:
(§7) Caspase activities were measured following manufacturer's protocols and presented as fold increase in relative to control.
as §4

Data set [12] concerns CK1 isoforms. The conditions noted are these: literature (refs 25,26); read-out: reported IC50 for inhibition of CK1 isoforms; cited from earlier work.
The target of data set [13] is CK1α (Homo sapiens, UniProt P48729). In words: In vitro kinase assay of RXR immunoprecipitated complexes with inhibitor in the assay mixture. Type of data set: biochemical. The note with it: RXR immunoprecipitated complexes from Compound 1-treated HEK293 Flag-RXR cells; read-out: IC50 for inhibition of phosphorylation of RXR and p160.
Experimental: To determine that the kinase activity which phosphorylates RXR and p160 in the RXR complex is only contributed by CK1α, in vitro kinase assays of the RXR immunoprecipitated complexes in the presence of various concentrations of a known CK1 specific inhibitor CK1-7 (25) was performed.
The immunoprecipitated complexes were re-suspended in 15 μl of kinase assay buffer (30 mM Tris-HCl, pH 7.4 and 10 mM MgCl2). The kinase reactions were initiated by adding 2 μl of 50 μM [γ-32P]ATP (10 μCi) into the immunocomplexes, followed by incubation at 30° C. with shaking for 20 min, and terminated by adding 6 μl of 4× SDS sample loading buffer. After heating at 100° C. for 5 min, the reaction mixtures were resolved by 4-12% SDS-PAGE. The incorporation of ^32P into RXR and other proteins was determined by subjecting the gel to autoradiography.
For data set [14], the system named is DT40 cells. Nature of the data set: Activation of caspases 3 and 9. The data set is classed as cell-based. On the procedure: as §7, §4
In data set [15] the test system is MKK4. In words: MKK4 phosphorylation (stress pathway activation) by immunoblotting. The data set is classed as cell-based. The note with it: HEK293 transfected with RXR or RXR plus MKK4. On the procedure: as §2, §3, §6
For orientation: A western blot detects proteins with antibodies after separation by electrophoresis.

CK1α, sequence (P48729 whole entry, one chain of several): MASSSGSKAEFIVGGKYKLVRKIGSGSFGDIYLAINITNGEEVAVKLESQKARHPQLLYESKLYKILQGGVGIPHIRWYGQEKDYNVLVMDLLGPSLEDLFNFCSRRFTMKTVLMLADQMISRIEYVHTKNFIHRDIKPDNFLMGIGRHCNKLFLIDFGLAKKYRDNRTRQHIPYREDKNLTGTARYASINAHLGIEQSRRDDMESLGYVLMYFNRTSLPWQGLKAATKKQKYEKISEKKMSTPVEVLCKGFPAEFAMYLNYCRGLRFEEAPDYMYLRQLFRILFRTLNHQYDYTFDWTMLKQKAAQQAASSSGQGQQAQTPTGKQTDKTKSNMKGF

Take `C/C(=C\c1ccc(C(=O)O)cc1)c1ccc2c(c1)C(C)(C)CCC2(C)C` [TTNPB, reference compound]: the “recruitment of protein kinase to RXR immunocomplexes” value in data set [1] is reported as “did not recruit the protein kinase”. Further, the “activation of RXR:RAR heterodimers (pRARE-Luc)” value in [2] was “activated”.

For the compound `COc1cccc(-c2cc(=O)c3ccccc3o2)c1N` [PD98059], the “effect on kinase activities in the RXR immunocomplexes” value (from here on “effect on kinase activities”) in [3] was “not influenced to a significant degree”.

On to `Oc1ccc(-c2nc(-c3ccncc3)c(-c3ccc(F)cc3)[nH]2)cc1` [SB202190], for which, in data set [3], the “effect on kinase activities” value is reported as “not influenced to a significant degree”.

Turning to `CC(/C=C/C1CC1(C)c1ccc2c(c1)C(C)(C)CCC2(C)C)=C\C(=O)O` (stereo not shown) [Compound 1], the apoptotic populations result in data set [4] was “dramatic increase of apoptotic populations”. Also, the “efficacy in cell death/growth inhibition on overexpression of RXR” value in data set [5] is “dramatically increase the efficacy”. The apoptotic cells is given as 57.3% in data set [6], 36.4% in data set [7], 4.5% in data set [8] and 3.4% in data set [9]. For the same compound, the DR-1 luciferase expression entry in data set [10] was “greatly stimulated”. Moreover, the “activation of caspases 3 and 9” value in data set [11] is recorded as “activated”. Moreover, the “kinase activity in Flag-RXR immunoprecipitated complex when ligand added only to the in vitro kinase reaction” value in data set [1] (immunoprecipitation in absence of Compound 1, added later to kinase reaction mixture) is reported as “could not be detected”. For the same compound, the “recruitment of protein kinase to RXR immunocomplexes” value in [1] was “contained the kinase that could phosphorylate RXR and the 160 kDa protein”.

Take `C[S+]([O-])c1ccc(-c2nc(-c3ccncc3)c(-c3ccc(F)cc3)[nH]2)cc1` (stereo not shown) [SB203580]: the “effect on kinase activities” value in data set [3] is on record as “not influenced to a significant degree”.

With “insulin: insulin used to stimulate RXR transfected cells for 30 minutes”, the “effect on kinase activities” value in data set [3] is “not influenced to a significant degree”.

For the compound `NCCNS(=O)(=O)c1ccc(Cl)c2ccncc12` [CK1-7, N-(2-amino-ethyl)-5-chloroisoquinoline-8-sulfonamide], the IC50 in data set [12] was 10 to 100 µM; in data set [13], around 30 µM.

`OO` [Compound H2O2, hydrogen peroxide, reference compound]: the “activation of caspases 3 and 9” value was “could activate caspases 3 and 9” in [11]; “could activate caspases 3 and 9” in data set [14].

Turning to `COc1ccc(C[C@H]2NC[C@H](O)[C@H]2OC(C)=O)cc1` [anisomycin], in data set [15], the “phosphorylation of MKK4” value is “increased phosphorylation of both endogenous and overexpressed MKK4”. The “effect on kinase activities” value in data set [3] is on record as “not affected by anisomycin treatment”.

The term IC50 denotes the concentration that gives 50% inhibition.
